Assay results: patent US10004740B2, “Prodrugs of HIV reverse transcriptase inhibitors” (Merck Sharp & Dohme Corp., priority 2014, dated 2018)

What was measured:
[1] = molecular target: T1, HIV-1 RT wild-type enzyme (Human immunodeficiency virus type 1 group M subtype B, UniProt P04585); test: Determination of HIV-1 reverse transcriptase inhibitory activity (RT polymerase assay, electrochemiluminescence); type: biochemical
T1 construct: The HIV-1 RT wild-type enzyme (final concentration of 83 pM)
Description: Determination of HIV-1 Reverse Transcriptase Inhibitory Activity
The heterodimeric nucleic acid substrate used in the HIV-1 RT polymerase reactions was generated by annealing the DNA primer, biotinylated pD500 (Sigma Aldrich, USA, 5′-biotin-ttg aaa tga ctg cgg tac ggc-3′), (SEQ ID NO: 1) to the nucleotide RNA template t500 (derived from hepatitis C virus [HCV] sequence, IBA, Germany, 5′-[…]-3′), (SEQ ID NO: 2). The HIV-1 RT wild-type enzyme (final concentration of 83 pM) was combined with an inhibitor or dimethyl sulfoxide (DMSO, 10% in the final reaction mixture) in assay buffer (62.5 mM Tris-HCl [pH 7.8], 1.25 mM dithiothreitol, 7.5 mM MgCl2, 100 mM KCl, 0.03% CHAPS, and 125 μM EGTA). The mixture was then preincubated on an orbital shaker for 30 min at room temperature in microtiter plates (Costar 3365, Corning, USA). A polymerization reaction was initiated by the addition of RNA template/pD500 DNA primer hybrid (16.6 nM final of RNA/DNA hybrid) and dNTPs (2 μM dATP, dGTP, dCTP and 66.6 nM Ru-dUTP (Meso Scale Discovery, USA)). Plate was sealed and incubated for 5-10 min at room temperature on an orbital shaker. Plate was then incubated for 90 min at 37° C. and reactions quenched with 60 μl quenching buffer (50 mM EDTA, 0.7% BSA, 0.7% Tween-20, 0.017% sodium azide in PBS). The resulting solution was incubated at room temperature for an additional 5 min and then 50 μL was transferred to pre-blocked Avidin plates (L15AA, Meso Scale Discovery). Each well of Avidin plate was blocked for 1 h at room temperature with 100 μL 5% BSA in PBS. Blocking solution was removed by tapping vigorously on filter paper to remove all excess liquid. Reaction on pre-blocked avidin plate proceeded for 60 min at room temperature and then contents removed by tapping vigorously on filter paper to remove all excess liquid. After washing plate 3 times with 150 μL 1×PBS and blotting dry between cycles, 150 μL 1× Read Buffer T (4× Read Buffer T, Meso Scale Discovery) was added and incubated for 5 min at room temperature before counting on a Sector Imager […] (Meso Scale Discovery). Titration curves and IC50 values were calculated using a four parameter logistic fit according to standard procedures. Briefly, % Inhibition=100×((sample raw value)−(mean value of the low control or 0% inhibition))/((mean value of wells representing 100% inhibition)−(mean value of 0% inhibition)). In this assay, low control wells contain DMSO (0% inhibition) and 100% inhibition wells contain 1 μM efavirenz.

[2] = Pharmacokinetic studies in rats, oral gavage, plasma LC-MS/MS; type: in vivo; conditions: male, Wistar-Hannover; rat, 5 mg/kg PO, 40% PEG400/10% Tween-80/50% water; plasma concentration of Parent after dosing the Parent compound
Protocol: All animal studies were carried out under Good Laboratory Practice regulations for nonclinical laboratory studies. All animal housing and care procedures were in compliance with the Federal Animal Welfare Act and the Institute for Laboratory Animal Resources. All procedures carried out on the animals were reviewed and approved by the Institutional Animal Care and Use Committee. The animal facility was fully accredited with the Association for Assessment and Accreditation of Laboratory Animal Care International.
Two or three male Wistar-Hannover rats weighing 250 to 350 grams with vendor-placed carotid artery catheters were obtained from Charles River (Raleigh, N.C., U.S.A.). Animals were acclimated on a 12-hour light:dark cycle for a minimum of three days in ventilated plastic cages with food and water ad libitum. Blood samples were automatically collected using the Instech Automated Blood sampler (ABS, Plymouth Meeting, Pa.) at designated intervals up to 24 hr and were manually collected post 24 hr.
Animals were fasted overnight before either the Parent compounds of Examples 1-8 (Formula I′) or compounds of Examples 1 to 8 (Formula I) were administered to rats via an oral gavage at the doses and in vehicles specified in Table 3. The animals were allowed access to water ad libitum, while food was returned 4 hours after dosing.
Blood was drawn from catheters placed in the carotid […] at pre-dose, and 0.25, 0.5, 1, 2, 4, 8, 12, 18, 24, 30, and 48 hr after dosing for all compounds and additionally at 72 hr for compounds of example 1, 3, 4, 5, and 7. The plasma was separated by centrifugation (2 minutes at 10000 rpm) and stored at −70° C. until further analysis.
The quantitative analysis of the compounds was performed using a liquid chromatography and tandem mass spectrometry method (LC-MS/MS). The plasma samples were stabilized as needed prior to extraction. Fifty microliter of each unknown together with the standards and quality control samples were extracted using an automated protein precipitation procedure on a Hamilton workstation. The extract was centrifuged and the supernatant was transferred for analysis. The separation was enabled by a Thermo Aria LX-2 LC system on a reversed phase column e g Waters XSelect HSS T3 XP (50×2.1 mm×2.5 u) or Phenomenex Beta Test Column (50×2.1 mm). The compounds were detected using selected reaction monitoring (SRM) methods by an AB Sciex API5000 mass spectrometer in the positive or negative ionization mode. In addition, chromatographic peaks for Parent compounds of Examples 1-8 (Formula I′) and compounds of Examples 1 to 8 (Formula I) were resolved chromatographically with baseline to baseline separation.
Pharmacokinetic parameters were obtained using noncompartmental methods (Watson®). The area under the plasma concentration-time curve (AUC0-t) was calculated from the first time point (0 minutes) up to the last time point with measurable drug concentration (i.e., concentration of Parent (Formula I′ compound) resulting after administration of each of the Parent and Example compounds) using the linear trapezoidal or linear/log-linear trapezoidal rule. The remaining area under the plasma concentration-time curve (AUCt-∞) was estimated by dividing the observed concentration at the last time point by the elimination rate constant. This value was added to AUC0-t to estimate the AUC0-∞. The maximum plasma concentration (Cmax) and the time at which maximum concentration occurred (Tmax) were obtained by inspection of the plasma concentration-time data.
Table 3 provides AUC values obtained in these studies. In Table 3, the Parent of each Example number refers to the Parent counterpart compound of said Example number compound wherein R^4 is replaced with —H.

SMILES | IC50 [1] | AUC(0-inf) [2]
CC(F)(F)c1cc(Cn2cnc(C(F)(F)F)c(Oc3cc(Cl)cc(C#N)c3)c2=O)c(=O)[nH]n1 [Parent of Ex. 5, 3-chloro-5-((1-((6-(1,1-difluoroethyl)-3-oxo-2,3-dihydropyridazin-4-yl)methyl)-6-oxo-4-(trifluoromethyl)-1,6-dihydropyrimidin-5-yl)oxy)benzonitrile] | 4.6 nM | 29.1 µM·h
N#Cc1cc(Cl)cc(Oc2c(C(F)(F)F)ncn(Cc3cc(Cl)n[nH]c3=O)c2=O)c1 [Parent of Ex. 3, 3-chloro-5-((1-((6-chloro-3-oxo-2,3-dihydropyridazin-4-yl)methyl)-6-oxo-4-(trifluoromethyl)-1,6-dihydropyrimidin-5-yl)oxy)benzonitrile] | 2.7 nM | 10.2 µM·h
N#Cc1cc(Cl)cc(Oc2c(C(F)F)ncn(Cc3cc(Cl)n[nH]c3=O)c2=O)c1 [Parent of Ex. 2, 3-chloro-5-((1-((6-chloro-3-oxo-2,3-dihydropyridazin-4-yl)methyl)-4-(difluoromethyl)-6-oxo-1,6-dihydropyrimidin-5-yl)oxy)benzonitrile] | 3.3 nM | 15.3 µM·h
CC(F)(F)c1cc(Cn2cnc(C(C)(F)F)c(Oc3cc(Cl)cc(C#N)c3)c2=O)c(=O)[nH]n1 [Parent of Ex. 8, 3-chloro-5-((4-(1,1-difluoroethyl)-1-((6-(1,1-difluoroethyl)-3-oxo-2,3-dihydropyridazin-4-yl)methyl)-6-oxo-1,6-dihydropyrimidin-5-yl)oxy)benzonitrile] | 4.7 nM | 13.9 µM·h
N#Cc1cc(Cl)cc(Oc2c(C(F)(F)F)ncn(Cc3cc(-c4ccc(F)cc4)c(=O)[nH]n3)c2=O)c1 [Parent of Ex. 7, 3-chloro-5-((1-((5-(4-fluorophenyl)-6-oxo-1,6-dihydropyridazin-3-yl)methyl)-6-oxo-4-(trifluoromethyl)-1,6-dihydropyrimidin-5-yl)oxy)benzonitrile] | 3.7 nM | 8.2 µM·h
N#Cc1cc(Cl)cc(Oc2c(C(F)(F)F)ncn(Cc3cc(C(F)(F)F)c(=O)[nH]n3)c2=O)c1 [Parent of Ex. 6, 3-chloro-5-((6-oxo-1-((6-oxo-5-(trifluoromethyl)-1,6-dihydropyridazin-3-yl)methyl)-4-(trifluoromethyl)-1,6-dihydropyrimidin-5-yl)oxy)benzonitrile] | 7.9 nM | 2 µM·h
N#Cc1cc(Cl)cc(Oc2c(C(F)(F)F)ncn(Cc3cc(C(F)F)n[nH]c3=O)c2=O)c1 [Parent of Ex. 4, 3-chloro-5-((1-((6-(difluoromethyl)-3-oxo-2,3-dihydropyridazin-4-yl)methyl)-6-oxo-4-(trifluoromethyl)-1,6-dihydropyrimidin-5-yl)oxy)benzonitrile] | 3.2 nM | 21 µM·h
